Measured values as given in patent US20110263454A1, “Methods of Identifying Functional Characteristics of Promoters, Transcription Modifying Proteins and Transcription Modulating Agents” (Salk Institute for Biological Studies, priority 2008, published 2011).

Assays:
hIRF7 promoter = assay: NHR-promoter luciferase screen, hIRF7 promoter; format: cell-based, human; conditions: for Normalized Luc. act., normalized to control / Luc. act., normalized to lacZ: IRF7 promoter reporter; for Normalized Luc. act., normalized to control: HR without or with its ligand, relative to control; for Luc. act., normalized to lacZ: hormone receptor (HR) without or with its ligand; for hIRF7 promoter reporter activity: transcription factor +/- ligand, control = 1.00
Protocol: (§1) The use, feasibility, and reproducibility of the functional NHR-promoter screen in a 48-well format have been tested validated. Briefly, there were co-expressed 50 ng of each NHR/NHR homodimer or NHR/RXR heterodimer with 100 ng promoter/luciferase construct and 50 ng of LacZ (as a control for transfection efficiency) in CV-1 cells using Fugene HD (Roche) as a transfection reagent (alternatively or additionally, a CMV-YFP construct can be used as a transfection control). Each of the nuclear hormone receptors that were used in these experiments was cloned into a pcDNA3.1 vector and comprised a C-terminally linked V5H6 tag. Twenty-four hours after transfection, appropriate ligands were added, where applicable, (see Table 5 for various ligands and concentrations and after 48 hrs, samples were assayed for luciferase and LacZ activity. To measure for luciferase activity 15 ul of sample was added to 30 ul of luciferase buffer (20 mM tricine, 1.07 mM MgCarbonate, 2.67 mM MgSulfate, 0.1 mM Naz-EDTA, 5 mM DTT, 5 mM ATP, 0.15 mg/ml CoA, 0.5 mM Luciferin), mixed briefly, and run in a Perkin Elmer Victor 5 luminometer. Thus, the functional NHR-promoter screen was used to observe the transcriptional activity of 29 promoters from various physiological pathways including inflammation, lipid and sugar metabolism, cholesterol transport, xenobiotic metabolism, and circadian rhythm.
(§2) The promoters that facilitate transcription of the indicated gene products that were tested using the protocols described herein are listed in the first row of the table. The nuclear hormone receptors and, where applicable, ligands that were assayed for their transcriptional effects on the promoters are listed in the first column of the table. The data represent the luciferase activity of each sample normalized to both the lacZ activity of that sample and to a control, e.g., no NHR or ligand, as customary in the art. As described previously, these normalizations allow the transcriptional activity of each reporter cell to be compared to other samples.
(§3) Tables 7-40 show the transcriptional effects of the hormone receptors, and, where applicable, ligands (orphan receptors are screened without ligand), on each individual promoter. […] The control data of each table are shown in their last rows.

mGhrelin promoter = assay: NHR-promoter luciferase screen, mGhrelin promoter; format: cell-based, mouse; conditions: for Luc. act., normalized to lacZ / Normalized Luc. act., normalized to control: Table 8, mGhrelin; for Results of assays of transcription factor (+/- ligand) with mGhrelin: Table 6d, luciferase activity relative to control (control = 1.00)
Protocol: as §1, §2, §3

Bmal1 promoter = assay: NHR-promoter luciferase screen, Bmal1 promoter; format: cell-based, mouse; conditions: for Luc. act., normalized to lacZ / Normalized Luc. act., normalized to control: Bmal1 promoter, HR component without or with ligand; for mBmal1 promoter reporter activity: transcription factor +/- ligand, control = 1.00
Protocol: as §1, §2, §3

mAgrp promoter = assay: NHR-promoter luciferase screen, mAgrp promoter; format: cell-based, mouse; conditions: for Results of assays of transcription factor (+/- ligand) with mAgrp: Table 6d, luciferase activity relative to control (control = 1.00); for Luc. act., normalized to lacZ / Normalized Luc. act., normalized to control: mAgrp promoter, HR component with or without ligand; for Normalized Luc. act., normalized to control: relative to control
Protocol: as §1, §2, §3

mUCP1 promoter = assay: NHR-promoter luciferase screen, mUCP1 promoter; format: cell-based, mouse; conditions: for Luc. act., normalized to lacZ / Normalized Luc. act., normalized to control: mUCP1 promoter reporter, co-transfected HR, with or without its ligand; for Normalized Luc. act., normalized to control: relative to control; for luciferase activity normalized to lacZ activity and to a control, mUCP!: mUCP! promoter-luciferase, CV-1 cells, NHR +/- ligand, control = 1.00
Protocol: as §1, §2, §3

Question: Which results are given for “ERR1: Estrogen Related Receptor α (NR3B1, ERRa), cDNA driver”?
Answer: Normalized Luc. act., normalized to control (hIRF7 promoter): 1.2; Luc. act., normalized to lacZ (hIRF7 promoter): 31.3; hIRF7 promoter reporter activity (hIRF7 promoter): 1.19; Luc. act., normalized to lacZ (mGhrelin promoter): 81.4; Normalized Luc. act., normalized to control (mGhrelin promoter): 1.6; Results of assays of transcription factor (+/- ligand) with mGhrelin (mGhrelin promoter): 1.56; Luc. act., normalized to lacZ (Bmal1 promoter): 13.6; Normalized Luc. act., normalized to control (Bmal1 promoter): 0.9; mBmal1 promoter reporter activity (Bmal1 promoter): 0.87; Results of assays of transcription factor (+/- ligand) with mAgrp (mAgrp promoter): 1.15; Luc. act., normalized to lacZ (mAgrp promoter): 45.5; Normalized Luc. act., normalized to control (mAgrp promoter): 1.1; Luc. act., normalized to lacZ (mUCP1 promoter): 3.9; Normalized Luc. act., normalized to control (mUCP1 promoter): 0.9; luciferase activity normalized to lacZ activity and to a control, mUCP! (mUCP1 promoter): 0.88

Question: With “SF-1: Steroidogenic Factor 1 (NR5A1, SF1), cDNA driver” as the substance, how does the “Normalized Luc. act., normalized to control” value (hIRF7 promoter) read?
Answer: Its value is 2.5.

Question: And the “Luc. act., normalized to lacZ” value (hIRF7 promoter)?
Answer: Its value is 65.5.

Question: What about the “hIRF7 promoter reporter activity” value (hIRF7 promoter) of the same substance?
Answer: The value was 2.49.

Question: What about the “Luc. act., normalized to lacZ” value (mGhrelin promoter) of the same substance?
Answer: The value was 273.2.

Question: And the “Normalized Luc. act., normalized to control” value (mGhrelin promoter)?
Answer: The value was 5.2.

Question: And the “Results of assays of transcription factor (+/- ligand) with mGhrelin” value (shortened to “Results of assays … with mGhrelin”) (mGhrelin promoter)?
Answer: Its value is 5.23.

Question: And the “Luc. act., normalized to lacZ” value (Bmal1 promoter)?
Answer: Its value is 11.4.

Question: And the “Normalized Luc. act., normalized to control” value (Bmal1 promoter)?
Answer: Its value is 0.7.

Question: What about the “mBmal1 promoter reporter activity” value (Bmal1 promoter) of the same substance?
Answer: The value was 0.73.

Question: What about the “Results of assays of transcription factor (+/- ligand) with mAgrp” value (“Results of assays … with mAgrp” for short) (mAgrp promoter) of the same substance?
Answer: The value was 3.58.

Question: And the “Luc. act., normalized to lacZ” value (mAgrp promoter)?
Answer: The value was 141.9.

Question: And the “Normalized Luc. act., normalized to control” value (mAgrp promoter)?
Answer: The value was 3.6.

Question: What about the “Luc. act., normalized to lacZ” value (mUCP1 promoter) of the same substance?
Answer: The value was 11.3.

Question: What about the “Normalized Luc. act., normalized to control” value (mUCP1 promoter) of the same substance?
Answer: Its value is 2.5.

Question: What about the “luciferase activity normalized to lacZ activity and to a control, mUCP!” value (“luciferase activity normalized” for short) (mUCP1 promoter) of the same substance?
Answer: Its value is 2.54.

Question: Which “Normalized Luc. act., normalized to control” value (hIRF7 promoter) does the source give for “PPARa: Peroxisome proliferator activated receptor α (NR1C1), cDNA driver” here?
Answer: The value was 1.4.

Question: What about the “Luc. act., normalized to lacZ” value (hIRF7 promoter) of the same substance?
Answer: The value was 36.6.

Question: And the “hIRF7 promoter reporter activity” value (hIRF7 promoter)?
Answer: Its value is 1.39.

Question: What about the “Luc. act., normalized to lacZ” value (mGhrelin promoter) of the same substance?
Answer: The value was 56.2.

Question: What about the “Normalized Luc. act., normalized to control” value (mGhrelin promoter) of the same substance?
Answer: Its value is 1.1.

Question: And the “Results of assays … with mGhrelin” value (mGhrelin promoter)?
Answer: Its value is 1.07.

Question: And the “Luc. act., normalized to lacZ” value (Bmal1 promoter)?
Answer: The value was 8.1.

Question: And the “Normalized Luc. act., normalized to control” value (Bmal1 promoter)?
Answer: The value was 0.5.

Question: What about the “mBmal1 promoter reporter activity” value (Bmal1 promoter) of the same substance?
Answer: The value was 0.52.

Question: What about the “Results of assays … with mAgrp” value (mAgrp promoter) of the same substance?
Answer: The value was 1.06.

Question: What about the “Luc. act., normalized to lacZ” value (mAgrp promoter) of the same substance?
Answer: The value was 42.1.

Question: And the “Normalized Luc. act., normalized to control” value (mAgrp promoter)?
Answer: The value was 1.1.

Question: And the “Luc. act., normalized to lacZ” value (mUCP1 promoter)?
Answer: Its value is 2.6.

Question: And the “Normalized Luc. act., normalized to control” value (mUCP1 promoter)?
Answer: The value was 0.6.

Question: What about the “luciferase activity normalized” value (mUCP1 promoter) of the same substance?
Answer: The value was 0.59.

Question: Which results are given for “PPARg: Peroxisome proliferator activated receptor γ (NR1C3), cDNA driver”?
Answer: Normalized Luc. act., normalized to control (hIRF7 promoter): 1.7; Luc. act., normalized to lacZ (hIRF7 promoter): 44.8; hIRF7 promoter reporter activity (hIRF7 promoter): 1.70; Luc. act., normalized to lacZ (mGhrelin promoter): 93.9; Normalized Luc. act., normalized to control (mGhrelin promoter): 1.8; Results of assays of transcription factor (+/- ligand) with mGhrelin (mGhrelin promoter): 1.80; luciferase/LacZ, mGhrelin (selected results) (mGhrelin promoter; mGhrelin promoter-luciferase, NHR +/- ligand, control = 1.0): 1.8; Luc. act., normalized to lacZ (Bmal1 promoter): 13.8; Normalized Luc. act., normalized to control (Bmal1 promoter): 0.9; mBmal1 promoter reporter activity (Bmal1 promoter): 0.88; Results of assays of transcription factor (+/- ligand) with mAgrp (mAgrp promoter): 1.84; luciferase/LacZ, mAgrp (selected results) (mAgrp promoter; mAgrp promoter-luciferase, NHR +/- ligand, control = 1.0): 1.8; Luc. act., normalized to lacZ (mAgrp promoter): 73.0; Normalized Luc. act., normalized to control (mAgrp promoter): 1.8; Luc. act., normalized to lacZ (mUCP1 promoter): 2.9; Normalized Luc. act., normalized to control (mUCP1 promoter): 0.7; luciferase activity normalized to lacZ activity and to a control, mUCP! (mUCP1 promoter): 0.66

Question: For “TLX: Tailless (homolog of drosophila) (NR2E1), cDNA driver”, which “Normalized Luc. act., normalized to control” value (hIRF7 promoter) is on record?
Answer: Its value is 2.1.

Question: And the “Luc. act., normalized to lacZ” value (hIRF7 promoter)?
Answer: Its value is 55.0.

Question: What about the “hIRF7 promoter reporter activity” value (hIRF7 promoter) of the same substance?
Answer: Its value is 2.09.

Question: And the “Luc. act., normalized to lacZ” value (mGhrelin promoter)?
Answer: The value was 86.6.

Question: What about the “Normalized Luc. act., normalized to control” value (mGhrelin promoter) of the same substance?
Answer: Its value is 1.7.

Question: What about the “Results of assays … with mGhrelin” value (mGhrelin promoter) of the same substance?
Answer: Its value is 1.66.

Question: And the “Luc. act., normalized to lacZ” value (Bmal1 promoter)?
Answer: Its value is 12.2.

Question: What about the “Normalized Luc. act., normalized to control” value (Bmal1 promoter) of the same substance?
Answer: The value was 0.8.

Question: And the “mBmal1 promoter reporter activity” value (Bmal1 promoter)?
Answer: Its value is 0.78.

Question: And the “Results of assays … with mAgrp” value (mAgrp promoter)?
Answer: The value was 0.82.

Question: What about the “Luc. act., normalized to lacZ” value (mAgrp promoter) of the same substance?
Answer: The value was 32.4.

Question: And the “Normalized Luc. act., normalized to control” value (mAgrp promoter)?
Answer: Its value is 0.8.

Question: What about the “Luc. act., normalized to lacZ” value (mUCP1 promoter) of the same substance?
Answer: Its value is 2.8.

Question: And the “Normalized Luc. act., normalized to control” value (mUCP1 promoter)?
Answer: The value was 0.6.

Question: And the “luciferase activity normalized” value (mUCP1 promoter)?
Answer: Its value is 0.63.

Question: For “LXRa: Liver X Receptor α (NR1H3), cDNA driver”, which “Normalized Luc. act., normalized to control” value (hIRF7 promoter) is on record?
Answer: The value was 1.3.

Question: And the “Luc. act., normalized to lacZ” value (hIRF7 promoter)?
Answer: Its value is 33.2.

Question: What about the “hIRF7 promoter reporter activity” value (hIRF7 promoter) of the same substance?
Answer: The value was 1.26.

Question: What about the “Luc. act., normalized to lacZ” value (mGhrelin promoter) of the same substance?
Answer: The value was 56.7.

Question: What about the “Normalized Luc. act., normalized to control” value (mGhrelin promoter) of the same substance?
Answer: Its value is 1.1.

Question: What about the “Results of assays … with mGhrelin” value (mGhrelin promoter) of the same substance?
Answer: Its value is 1.08.

Question: What about the “Luc. act., normalized to lacZ” value (Bmal1 promoter) of the same substance?
Answer: Its value is 19.7.

Question: What about the “Normalized Luc. act., normalized to control” value (Bmal1 promoter) of the same substance?
Answer: The value was 1.3.

Question: What about the “mBmal1 promoter reporter activity” value (Bmal1 promoter) of the same substance?
Answer: The value was 1.26.

Question: What about the “Results of assays … with mAgrp” value (mAgrp promoter) of the same substance?
Answer: Its value is 1.58.

Question: And the “Luc. act., normalized to lacZ” value (mAgrp promoter)?
Answer: The value was 62.5.

Question: And the “Normalized Luc. act., normalized to control” value (mAgrp promoter)?
Answer: The value was 1.6.

Question: What about the “Luc. act., normalized to lacZ” value (mUCP1 promoter) of the same substance?
Answer: The value was 3.1.

Question: And the “Normalized Luc. act., normalized to control” value (mUCP1 promoter)?
Answer: The value was 0.7.

Question: What about the “luciferase activity normalized” value (mUCP1 promoter) of the same substance?
Answer: The value was 0.69.
